Where two headings read alike, the source gives them in different places.

Consider one compound from patent US11173152B1, “Glutathione-coated nanoparticles for delivery of MKT-077 across the blood-brain barrier” (UNIVERSITY OF SOUTH FLORIDA, priority 2015, dated 2021).

The test system of data set [1] is human tau in HeLa cells stably expressing human tau. Kind of data set: Effect on tau level in a cellular AD model (Western blot). The data set is classed as cell-based. The conditions noted are these: 3 μM, 24 hours, GAPDH normalization. As to the method:
AD model: HeLa cells stably expressing human tau were maintained in OPTIMEM media as described earlier. Treatment with nanoparticles or control were performed for 24 hours and samples analyzed by western blotting, as described earlier.
In order to determine whether the newly formulated MKT-NPs are active, a cellular AD HeLa cell model that stably expresses human tau was used. Cells were treated with 3 μM of MKT uncoated NPs or MKT Glu-NPS or drug in solution or various controls for 24 hours.

For data set [2], the system named is TRANSWELL in vitro BBB model, co-culture of RBE4 (rat brain endothelial) cells with C6 (rat astrocytoma) cells. The experiment in a line: In vitro BBB permeation model. The data set is classed as in vitro ADME. The conditions noted are these: end of the 48-hour study period, 10 μM equivalent, n=4. As to the method: A […] in vitro BBB model was established to study the BBB permeation of MKT NPs and MKT Glu-NPs compared to drug solution according to a method previously described by the current inventors in [18]. […] permeable inserts were treated with 0.1% rat tail collagen I on the apical and basolateral sides. After 24 hours, C6 (rat astrocytoma) cells were seeded onto the basolateral side of the permeable insert (5×10^4 cells). After 48 hours, RBE4 (rat brain endothelial) cells were seeded onto the apical side of the permeable (5×10^4 cells). Cells were bathed in 1:1 mixture of Ham's F10:MEM media supplemented with 10% FBS with 1.5 mL in the basolateral chamber and 0.5 mL in the apical chamber, and were allowed to incubate (37° C. and 5% CO2) for 24 hours until confluence was established.
After 24 hours, media was replaced with a 1:1 mixture of Ham's F10:MEM media supplemented with 1% FBS (experimental media), and cells were treated with 10 μM equivalent treatments of MKT aqueous drug solution, MKT NPs, and MKT Glu-NPs. 1 mL media samples were aliquoted from the basolateral chamber at predetermined intervals over a 48-hour period to investigate the trans-BBB permeation of the treatments. Aliquots were read by UV spectroscopy (at wavelength of 492 nm (λmax) and compared to UV absorbance of standard dilutions of MKT drug in experimental media (r^2=0.9990).

The conditions of data set [3]: rat, in vivo; cited from earlier work.
The conditions of data set [4]: dog, in vivo; cited from earlier work.
For data set [5] the following is noted: human subjects; cited from earlier work.
The conditions of data set [6]: blockage by the BBB; cited from earlier work.
Data set [7] can be described thus: In vitro drug release (dialysis membrane, PBS pH 7.4). Type of data set: physicochemical. The settings on record: within the initial 4 hours; PBS pH 7.4, 37° C. As to the method: The drug release profile of MKT from MKT NPs and MKT Glu-NPs was investigated using a method previously described by the current inventors in [14]. 0.05 mg equivalent of MKT aqueous solution, MKT NPs, and MKT Glu-NPs were placed in dialysis membrane tubing ([…]) and placed in 20 mL of release medium comprised of PBS (pH 7.4) stirring at 100 rpm and 37° C. 1 mL aliquots were removed at predetermined intervals over 7 days and analyzed by UV spectroscopy at wavelength of 492 nm (λmax) and compared to UV absorbance of standard aqueous dilutions of MKT drug (r^2=0.9943).

Regarding `CCn1c(=O)/c(=C2\Sc3ccccc3N2C)s/c1=C\c1cccc[n+]1CC.[Cl-]` [MKT-077], in data set [1], the “reduction in tau levels” value is “greater and comparable reduction in tau levels”. The “drug permeated through the BBB model” value in data set [2] was determined as 20%. The renal toxicity result in data set [3], in data set [4] and in data set [5] was “irreversible renal toxicity” throughout. For the same compound, the brain permeation result in data set [6] is on record as “limited-to-no brain permeation”. Besides, in data set [7], the drug released entry was “Approximately 100%”.
